ChEMBL document CHEMBL5537133, “Rational design and optimization of novel 4-methyl quinazoline derivatives as PI3K/HDAC dual inhibitors with benzamide as zinc binding moiety for the treatment of acute myeloid leukemia” (Eur J Med Chem, 2024)

Tests used:
DOHH-2 = assay: Antiproliferative activity against human DOHH-2 cells assessed as reduction in cell viability incubated for 72 hrs by CCK-8 assay; type: functional, cell-based; details: DOHH-2, 72 h
HL-60 = assay: Antiproliferative activity against human HL-60 cells assessed as reduction in cell viability incubated for 72 hrs by CCK-8 assay; type: functional, cell-based; details: HL-60, 72 h
BaF3 = assay: Antiproliferative activity against mouse BaF3 cells assessed as reduction in cell viability incubated for 72 hrs by CCK-8 assay; type: functional, cell-based; details: BaF3, 72 h
Ramos = assay: Antiproliferative activity against human Ramos cells assessed as reduction in cell viability incubated for 72 hrs by CCK-8 assay
Raji = assay: Antiproliferative activity against human Raji cells assessed as reduction in cell viability incubated for 72 hrs by CCK-8 assay; type: functional, cell-based
EL4 = assay: Antiproliferative activity against mouse EL4 cells assessed as reduction in cell viability incubated for 72 hrs by CCK-8 assay; type: functional, cell-based; details: EL4, 72 h
[1] = tested on: Friend leukemia cell line; assay: Antiproliferative activity against mouse Friend leukemia cell line assessed as reduction in cell viability incubated for 72 hrs by CCK-8 assay; type: functional, cell-based
MV4-11 [2] = assay: Antiproliferative activity against human MV4-11 cells assessed as reduction in cell viability incubated for 72 hrs by CCK-8 assay; type: functional, cell-based; details: MV4-11, 72 h
L1210 = assay: Antiproliferative activity against mouse L1210 cells assessed as reduction in cell viability incubated for 72 hrs by CCK-8 assay; type: functional, cell-based; details: L1210, 72 h
NB-4 = assay: Antiproliferative activity against human NB4 cells assessed as reduction in cell viability incubated for 72 hrs by CCK-8 assay; type: functional, cell-based; details: NB-4, 72 h
[3] = Antiproliferative activity against human MINO cells assessed as reduction in cell viability incubated for 72 hrs by CCK-8 assay
[4] = molecular target: Phosphatidylinositol 4,5-bisphosphate 3-kinase catalytic subunit alpha isoform (Homo sapiens, UniProt P42336)
Chain of Phosphatidylinositol 4,5-bisphosphate 3-kinase catalytic subunit alpha isoform (P42336 whole entry, canonical isoform): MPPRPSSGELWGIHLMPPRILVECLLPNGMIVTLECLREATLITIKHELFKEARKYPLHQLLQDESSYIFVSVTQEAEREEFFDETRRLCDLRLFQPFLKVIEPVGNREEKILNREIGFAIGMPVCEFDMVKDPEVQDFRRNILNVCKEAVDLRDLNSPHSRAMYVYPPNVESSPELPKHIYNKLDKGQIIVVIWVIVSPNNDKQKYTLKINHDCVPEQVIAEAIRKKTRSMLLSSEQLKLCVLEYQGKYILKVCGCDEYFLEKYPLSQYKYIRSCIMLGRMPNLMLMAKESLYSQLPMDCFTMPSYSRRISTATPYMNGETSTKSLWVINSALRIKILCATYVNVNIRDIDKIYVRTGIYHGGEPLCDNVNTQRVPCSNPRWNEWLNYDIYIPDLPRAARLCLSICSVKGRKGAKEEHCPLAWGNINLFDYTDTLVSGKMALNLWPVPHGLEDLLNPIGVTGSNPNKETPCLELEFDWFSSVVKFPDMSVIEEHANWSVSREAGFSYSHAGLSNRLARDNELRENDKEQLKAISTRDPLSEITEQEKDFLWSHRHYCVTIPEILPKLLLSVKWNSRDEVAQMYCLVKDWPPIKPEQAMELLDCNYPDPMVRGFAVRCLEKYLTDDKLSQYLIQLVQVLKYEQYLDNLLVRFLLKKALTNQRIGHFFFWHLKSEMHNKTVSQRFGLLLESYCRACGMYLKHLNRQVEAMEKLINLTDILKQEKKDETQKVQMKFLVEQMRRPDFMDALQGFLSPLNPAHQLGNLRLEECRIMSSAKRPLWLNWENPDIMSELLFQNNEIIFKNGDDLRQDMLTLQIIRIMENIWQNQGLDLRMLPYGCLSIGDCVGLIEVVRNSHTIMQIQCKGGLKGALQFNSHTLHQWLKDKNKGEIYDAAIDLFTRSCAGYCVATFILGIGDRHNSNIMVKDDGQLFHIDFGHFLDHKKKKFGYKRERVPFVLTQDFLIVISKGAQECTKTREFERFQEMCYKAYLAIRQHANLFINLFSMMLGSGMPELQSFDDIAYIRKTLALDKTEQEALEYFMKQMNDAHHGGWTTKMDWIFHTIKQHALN
Description: Inhibition of PI3Kalpha (unknown origin) using PIP2 as substrate incubated for 1 hr in presence of ATP by ADP-Glo assay

Histone deacetylase 1 = Histone deacetylase 1 (Homo sapiens, UniProt Q13547)
Chain of Histone deacetylase 1 (Q13547 whole entry): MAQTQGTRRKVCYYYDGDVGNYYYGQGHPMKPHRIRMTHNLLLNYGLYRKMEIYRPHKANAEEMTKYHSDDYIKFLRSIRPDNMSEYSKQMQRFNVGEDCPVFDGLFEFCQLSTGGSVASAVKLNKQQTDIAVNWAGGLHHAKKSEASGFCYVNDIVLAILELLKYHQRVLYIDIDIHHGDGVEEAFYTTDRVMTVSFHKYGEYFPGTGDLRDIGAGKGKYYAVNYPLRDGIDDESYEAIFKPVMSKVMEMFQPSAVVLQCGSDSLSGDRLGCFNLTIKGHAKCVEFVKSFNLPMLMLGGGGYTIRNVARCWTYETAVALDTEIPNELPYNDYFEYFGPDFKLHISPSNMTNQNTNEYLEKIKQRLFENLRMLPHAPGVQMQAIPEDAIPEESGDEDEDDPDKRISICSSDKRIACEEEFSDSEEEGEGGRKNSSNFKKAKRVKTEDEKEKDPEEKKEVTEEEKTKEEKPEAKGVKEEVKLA
Description: Inhibition of C-terminal 6His-FLAG-tagged human recombinant HDAC1 (1 to 482 residues) expressed in Sf9 cells using Ac-peptide as substrate preincubated for 15 mins followed by substrate addition and measured after 1 hr by plate reader analysis

[5] = Toxicity in BALB/c nude mouse xenografted with human MV4-11 cells assessed as change in body weight at 60 mg/kg, po administered only daily for 14 days and measured twice a week; type: organism-based; details: in vivo, 336 h, time 14 day
MV4-11 [6] = assay: Antitumor activity against human MV4-11 cells xenografted in BALB/c nude mouse assessed as tumor growth inhibition at 60 mg/kg, po administered once daily for 14 days relative to control; type: functional; details: MV4-11, 336 h, time 14 day, read-out: TGI
Histone deacetylase 8 = Histone deacetylase 8 (Homo sapiens, UniProt Q9BY41); assay: Inhibition of C-terminal His-tagged human recombinant HDAC8 (1 to 377 end residues) expressed in Sf9 cells using Ac-peptide as substrate incubated for 1 hr by plate reader analysis
Chain of Histone deacetylase 8 (Q9BY41 whole entry, canonical isoform): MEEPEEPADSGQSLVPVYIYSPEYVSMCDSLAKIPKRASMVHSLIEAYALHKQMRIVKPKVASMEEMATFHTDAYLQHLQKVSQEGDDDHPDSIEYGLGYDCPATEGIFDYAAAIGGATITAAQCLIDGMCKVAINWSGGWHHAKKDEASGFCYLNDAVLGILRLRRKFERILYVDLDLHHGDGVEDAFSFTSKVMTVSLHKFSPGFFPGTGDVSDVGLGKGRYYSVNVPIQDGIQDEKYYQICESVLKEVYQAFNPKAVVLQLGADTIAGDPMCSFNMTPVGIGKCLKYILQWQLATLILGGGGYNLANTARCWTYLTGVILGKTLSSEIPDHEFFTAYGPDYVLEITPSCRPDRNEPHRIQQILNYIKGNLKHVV

[7] = molecular target: Phosphatidylinositol 4,5-bisphosphate 3-kinase catalytic subunit beta isoform (Homo sapiens, UniProt P42338); assay: Inhibition of PI3Kbeta (unknown origin) using PIP2 as substrate incubated for 1 hr in presence of ATP by ADP-Glo assay
Histone deacetylase 11 = Histone deacetylase 11 (Homo sapiens, UniProt Q96DB2); assay: Inhibition of human HDAC11 (1 to 347 end residues) expressed in Sf9 cells using Ac-peptide as substrate incubated for 1 hr by plate reader analysis
Chain of Histone deacetylase 11 (Q96DB2 whole entry, canonical isoform): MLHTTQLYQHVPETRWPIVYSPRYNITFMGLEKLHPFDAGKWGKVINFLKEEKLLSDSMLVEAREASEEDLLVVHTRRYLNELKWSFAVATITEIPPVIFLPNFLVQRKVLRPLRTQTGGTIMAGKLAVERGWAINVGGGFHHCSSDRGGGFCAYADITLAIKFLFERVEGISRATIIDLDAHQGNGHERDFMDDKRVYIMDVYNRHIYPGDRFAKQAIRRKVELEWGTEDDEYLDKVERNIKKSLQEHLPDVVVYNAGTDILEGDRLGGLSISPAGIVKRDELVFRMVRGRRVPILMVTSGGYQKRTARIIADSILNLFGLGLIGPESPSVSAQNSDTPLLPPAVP

[8] = molecular target: Phosphatidylinositol 4,5-bisphosphate 3-kinase catalytic subunit delta isoform (Homo sapiens, UniProt O00329); assay: Inhibition of PI3Kdelta (unknown origin) using PIP2 as substrate incubated for 1 hr in presence of ATP by ADP-Glo assay
Histone deacetylase 2 = Histone deacetylase 2 (Homo sapiens, UniProt Q92769); assay: Inhibition of C-terminal His6-FLAG-tagged human recombinant HDAC2 (1 to 488 residues) expressed in Sf9 cells using Ac-peptide as substrate preincubated for 15 mins followed by substrate addition and measured after 1 hr by plate reader analysis
Chain of Histone deacetylase 2 (Q92769 whole entry, the tested form may be a part): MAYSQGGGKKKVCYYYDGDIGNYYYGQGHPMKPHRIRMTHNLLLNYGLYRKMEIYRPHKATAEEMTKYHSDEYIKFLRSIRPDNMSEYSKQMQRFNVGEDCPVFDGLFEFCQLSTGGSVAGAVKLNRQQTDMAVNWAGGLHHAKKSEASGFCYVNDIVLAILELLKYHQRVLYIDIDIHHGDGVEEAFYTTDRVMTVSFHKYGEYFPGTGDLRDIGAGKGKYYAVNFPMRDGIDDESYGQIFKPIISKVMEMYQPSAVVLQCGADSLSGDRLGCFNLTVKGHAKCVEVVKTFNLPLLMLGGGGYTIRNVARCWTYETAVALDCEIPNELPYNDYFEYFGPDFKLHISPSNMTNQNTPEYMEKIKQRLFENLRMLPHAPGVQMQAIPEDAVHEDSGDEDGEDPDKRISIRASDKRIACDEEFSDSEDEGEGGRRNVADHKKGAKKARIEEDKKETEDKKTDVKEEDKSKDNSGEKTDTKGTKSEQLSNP

[9] = Terminal half life in ICR mouse at 60 mg/kg, po measured after 24 hrs by LC-MS/MS analysis; type: ADME, organism-based; details: in vivo, read-out: beta t1/2 (converted)
[10] = Tmax in ICR mouse at 60 mg/kg, po measured after 24 hrs by LC-MS/MS analysis; type: ADME, organism-based; details: in vivo
[11] = molecular target: Serine/threonine-protein kinase mTOR (Homo sapiens, UniProt P42345); assay: Inhibition of N-terminal FLAG-tagged recombinant human mTOR (1362 to end residues) using ULight-4E-BP1 (Thr37/46) peptide as substrate incubated for 30 mins in presence of ATP by LANCE ultra assay
[12] = AUC(0 to infinity) in ICR mouse at 60 mg/kg, po measured after 24 hrs by LC-MS/MS analysis; type: ADME, organism-based; details: in vivo, po, 60 mg/kg, 24 h
[13] = AUC(0 to infinity) in ICR mouse at 6 mg/kg, iv measured after 24 hrs by LC-MS/MS analysis; type: ADME, organism-based; details: in vivo
[14] = Terminal half life in ICR mouse at 6 mg/kg, iv measured after 24 hrs by LC-MS/MS analysis; type: ADME, organism-based; details: in vivo
MV4-11 [15] = assay: Antitumor activity against human MV4-11 cells xenografted in BALB/c nude mouse assessed as tumor growth inhibition at 10 mg/kg, ip administered once daily for 14 days relative to control; type: functional; details: MV4-11, 336 h, time 14 day, read-out: TGI
Histone deacetylase 4 = Histone deacetylase 4 (Homo sapiens, UniProt P56524); assay: Inhibition of N-terminal GST-tagged and C-terminal His-tagged human HDAC4 (627 to 1084 end residues) expressed in baculovirus infected Sf9 cells using Ac-peptide as substrate incubated for 1 hr by plate reader analysis
Chain of Histone deacetylase 4 (P56524 whole entry): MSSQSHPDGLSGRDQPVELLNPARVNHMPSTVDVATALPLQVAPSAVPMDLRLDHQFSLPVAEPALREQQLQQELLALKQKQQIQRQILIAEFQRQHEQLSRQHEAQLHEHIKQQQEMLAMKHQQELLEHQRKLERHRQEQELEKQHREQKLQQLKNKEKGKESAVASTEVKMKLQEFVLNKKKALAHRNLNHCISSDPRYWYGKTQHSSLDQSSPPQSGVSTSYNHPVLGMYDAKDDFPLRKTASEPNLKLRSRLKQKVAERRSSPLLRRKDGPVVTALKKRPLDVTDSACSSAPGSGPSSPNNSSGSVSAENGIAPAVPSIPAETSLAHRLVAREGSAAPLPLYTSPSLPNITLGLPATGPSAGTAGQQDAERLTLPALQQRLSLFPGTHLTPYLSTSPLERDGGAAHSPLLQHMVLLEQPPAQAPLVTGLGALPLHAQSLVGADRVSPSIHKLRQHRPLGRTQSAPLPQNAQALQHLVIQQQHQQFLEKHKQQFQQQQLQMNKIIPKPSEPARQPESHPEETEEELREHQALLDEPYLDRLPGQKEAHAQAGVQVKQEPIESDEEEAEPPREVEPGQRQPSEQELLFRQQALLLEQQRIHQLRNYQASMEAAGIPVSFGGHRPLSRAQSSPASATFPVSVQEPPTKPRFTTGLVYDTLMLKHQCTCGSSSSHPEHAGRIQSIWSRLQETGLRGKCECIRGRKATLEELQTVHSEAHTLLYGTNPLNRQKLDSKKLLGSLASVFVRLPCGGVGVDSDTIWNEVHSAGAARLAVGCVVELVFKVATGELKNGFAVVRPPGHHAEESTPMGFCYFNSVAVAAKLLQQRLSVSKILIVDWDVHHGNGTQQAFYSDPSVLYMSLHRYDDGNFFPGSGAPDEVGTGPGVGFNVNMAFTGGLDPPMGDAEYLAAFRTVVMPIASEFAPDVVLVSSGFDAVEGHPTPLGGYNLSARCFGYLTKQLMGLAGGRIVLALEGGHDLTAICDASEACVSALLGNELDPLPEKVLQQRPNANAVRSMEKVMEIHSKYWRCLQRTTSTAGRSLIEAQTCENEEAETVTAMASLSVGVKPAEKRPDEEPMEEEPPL

[16] = Toxicity in BALB/c nude mouse xenografted with human MV4-11 cells assessed as change in body weight at 10 to 20 mg/kg, ip administered only daily for 14 days and measured twice a week; type: organism-based; details: in vivo, 336 h, dose 10-20 mg/kg, time 14 day
MV4-11 [17] = assay: Antitumor activity against human MV4-11 cells xenografted in BALB/c nude mouse assessed as tumor growth inhibition at 20 mg/kg, ip administered once daily for 14 days relative to control; type: functional; details: MV4-11, 336 h, time 14 day, read-out: TGI
Histone deacetylase 3 = Histone deacetylase 3 (Homo sapiens, UniProt O15379); assay: Inhibition of HDAC3 (unknown origin)
[18] = AUC(0 to t) in ICR mouse at 60 mg/kg, po measured after 24 hrs by LC-MS/MS analysis; type: ADME, organism-based; details: in vivo
[19] = AUC(0 to t) in ICR mouse at 6 mg/kg, iv measured after 24 hrs by LC-MS/MS analysis; type: ADME, organism-based; details: in vivo
[20] = Cmax in ICR mouse at 6 mg/kg, iv measured after 24 hrs by LC-MS/MS analysis; type: ADME, organism-based; details: in vivo
[21] = molecular target: Protein deacetylase HDAC6 (Homo sapiens, UniProt Q9UBN7); assay: Inhibition of HDAC6 (unknown origin)
[22] = Cmax in ICR mouse at 60 mg/kg, po measured after 24 hrs by LC-MS/MS analysis; type: ADME, organism-based; details: in vivo
[23] = molecular target: Phosphatidylinositol 4,5-bisphosphate 3-kinase catalytic subunit gamma isoform (Homo sapiens, UniProt P48736); assay: Inhibition of PI3Kgamma (unknown origin) using PIP2 as substrate incubated for 1 hr in presence of ATP by ADP-Glo assay
Chain of Phosphatidylinositol 4,5-bisphosphate 3-kinase catalytic subunit gamma isoform (P48736 whole entry, canonical isoform): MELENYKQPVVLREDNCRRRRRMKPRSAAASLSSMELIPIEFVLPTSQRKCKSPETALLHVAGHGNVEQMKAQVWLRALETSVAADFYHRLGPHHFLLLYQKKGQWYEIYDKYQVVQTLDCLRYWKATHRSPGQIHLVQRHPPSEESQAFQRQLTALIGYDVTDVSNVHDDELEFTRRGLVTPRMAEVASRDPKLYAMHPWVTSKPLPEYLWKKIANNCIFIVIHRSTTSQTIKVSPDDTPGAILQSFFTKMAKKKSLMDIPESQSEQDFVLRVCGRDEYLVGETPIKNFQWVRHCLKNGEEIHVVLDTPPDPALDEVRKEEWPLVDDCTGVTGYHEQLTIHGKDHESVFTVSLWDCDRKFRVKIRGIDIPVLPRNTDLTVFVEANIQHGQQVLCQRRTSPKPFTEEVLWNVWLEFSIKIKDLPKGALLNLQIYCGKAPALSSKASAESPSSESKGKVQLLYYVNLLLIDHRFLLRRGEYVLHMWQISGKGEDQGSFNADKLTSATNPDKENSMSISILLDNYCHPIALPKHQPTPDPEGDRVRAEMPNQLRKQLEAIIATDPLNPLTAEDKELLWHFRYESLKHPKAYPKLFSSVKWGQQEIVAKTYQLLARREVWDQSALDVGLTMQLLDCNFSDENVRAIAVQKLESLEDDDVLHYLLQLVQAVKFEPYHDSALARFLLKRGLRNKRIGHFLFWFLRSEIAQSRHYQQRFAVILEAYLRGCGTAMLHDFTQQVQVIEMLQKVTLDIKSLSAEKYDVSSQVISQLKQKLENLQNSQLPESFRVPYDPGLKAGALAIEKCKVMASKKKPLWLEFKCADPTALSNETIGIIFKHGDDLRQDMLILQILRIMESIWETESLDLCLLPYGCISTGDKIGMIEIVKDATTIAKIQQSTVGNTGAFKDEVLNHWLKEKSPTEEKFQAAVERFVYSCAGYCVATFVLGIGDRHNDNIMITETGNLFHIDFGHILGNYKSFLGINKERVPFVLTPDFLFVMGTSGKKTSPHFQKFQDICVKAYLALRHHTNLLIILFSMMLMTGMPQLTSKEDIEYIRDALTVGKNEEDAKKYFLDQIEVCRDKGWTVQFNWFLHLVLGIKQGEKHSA

Nc1ccc(F)cc1NC(=O)c1ccc(CNC(=O)/C=C/c2cccnc2)cc1
IC50 (DOHH-2): 4300 nM
IC50 (HL-60): 1300 nM
IC50 (BaF3): 1500 nM
IC50 (Ramos): > 10000 nM
IC50 (Raji): 6900 nM
IC50 (EL4): 5200 nM
IC50 [1]: 500 nM
IC50 (MV4-11 [2]): 320 nM
IC50 (L1210): > 10000 nM
IC50 (NB-4): 1900 nM
IC50 [3]: 2100 nM

COc1ncc(-c2cc(OCCCCCCC(=O)NO)c3ncnc(C)c3c2)cc1F
IC50 (MV4-11 [2]): 250 nM

COc1ncc(-c2cc(OCCCCCCCCCC(=O)Nc3ccccc3N)c3ncnc(C)c3c2)cc1NS(=O)(=O)c1ccc(F)cc1F
IC50 [4]: 0.4 nM
IC50 (MV4-11 [2]): 60 nM
IC50 (Histone deacetylase 1): 3030 nM

COc1ncc(-c2cc(OCCCCCCCCC(=O)Nc3ccccc3N)c3ncnc(C)c3c2)cc1NS(=O)(=O)c1ccc(F)cc1F
IC50 [4]: 0.39 nM
IC50 (MV4-11 [2]): 10 nM
IC50 (Histone deacetylase 1): 253 nM

COc1ncc(-c2cc(OCCCCCCC(=O)Nc3ccccc3N)c3ncnc(C)c3c2)cc1NS(=O)(=O)c1ccc(F)cc1F
Activity [5]: Non-Toxic
inhibition in vivo at 60 mg/kg (MV4-11 [6]): 53.6%
IC50 (Histone deacetylase 8): > 10000 nM
IC50 [7]: 0.66 nM
IC50 (Histone deacetylase 11): > 10000 nM
IC50 (DOHH-2): 5400 nM
IC50 [8]: 1.9 nM
IC50 (Histone deacetylase 2): 181 nM
IC50 (HL-60): 210 nM
half-life [9]: 1.38 h
IC50 (BaF3): 130 nM
Tmax [10]: 0.52 h
IC50 [11]: 3.4 nM
IC50 (Ramos): 4400 nM
IC50 (Raji): 6300 nM
AUC [12]: 5042 ng·h/mL
IC50 [4]: 0.23 nM
AUC [13]: 1605 ng·h/mL
IC50 (EL4): 560 nM
IC50 [1]: 350 nM
beta t1/2 [14]: 2.3 h
inhibition in vivo at 10 mg/kg (MV4-11 [15]): 53.6%
IC50 (MV4-11 [2]): 4 nM
IC50 (L1210): 140 nM
IC50 (Histone deacetylase 4): > 10000 nM
Activity [16]: Non-Toxic
IC50 (NB-4): 40 nM
inhibition in vivo at 20 mg/kg (MV4-11 [17]): 75%
IC50 (Histone deacetylase 3): 899 nM
AUC(0-t) at 24 h [18]: 5020 ng·h/mL
IC50 [3]: 5400 nM
AUC(0-t) at 24 h [19]: 1580 ng·h/mL
Cmax [20]: 8310 ng/mL
IC50 [21]: > 10000 nM
Cmax [22]: 3780 ng/mL
IC50 (Histone deacetylase 1): 172 nM
IC50 [23]: 1.8 nM

COc1ncc(-c2cc(OCCCC(=O)Nc3ccccc3N)c3ncnc(C)c3c2)cc1NS(=O)(=O)c1ccc(F)cc1F
IC50 [4]: 0.23 nM
IC50 (MV4-11 [2]): 30 nM
IC50 (Histone deacetylase 1): 4710 nM

COc1ncc(-c2cc(OCCCCC(=O)Nc3ccccc3N)c3ncnc(C)c3c2)cc1NS(=O)(=O)c1ccc(F)cc1F
IC50 [4]: 0.2 nM
IC50 (MV4-11 [2]): 20 nM
IC50 (Histone deacetylase 1): 3560 nM
